Target: P. falciparum apicoplast DNA polymerase (Pf-apPOL) (Plasmodium falciparum, UniProt Q8ILY1)
Assay: Fluorescence-based high-throughput DNA polymerase assay (molecular beacon), primary screen and dose-response
Type: biochemical
Conditions: for DNA Pol: 90 min, 10 µM
Procedure: The HT assay employs a molecular beacon, a stem-loop DNA template with a Cy3 dye and the Black Hole Quencher on the 3′ and 5′ ends of the DNA, respectively. Pf-apPOL concentration is based on a calculated absorptivity of ε280 = 56750 M^−1 cm^−1. Reactions were carried out at 25 °C, using Corning 3575 […] (well-volume, 20 µL). Assays testing for compound inhibition composed of reaction buffer (pH 7.9 in 50 mM potassium acetate, 20 mM Tris-acetate and 10 mM magnesium acetate), Pf-apPOL (20 nM), DNA substrate (20 nM), dNTPs (6 µM), and compound (10 µM in DMSO). The DNA and nucleotide substrates (dNTPs) were at concentrations of 20 nM and 6 µM, respectively, in the assay. Pf-apPOL was incubated in the reaction buffer with dNTPs and the compound of interest (10 µM, in the assay) at 25 °C for 10 min. The DNA substrate was then added and the reaction was allowed to proceed for 90 min at 25 °C.
Each assay plate contained 16 negative controls (no Pf-apPOL, DMSO present) and 16 positive controls (Pf-apPOL present, no DMSO). The fluorescence of each well was determined using a BioTek Synergy Neo fluorescence plate reader using excitation and emission wavelengths of 555 and 570 nm, respectively.
In the above, Min is the average of fluorescence emission of the negative controls (substrate only), Max the average fluorescence emission from the positive controls (enzyme + substrate), and Test the emission from the assays in the presence of compounds (enzyme + compound + substrates). […] […] The IC50 of each compound was determined using Equation (2): (2) IC50= Vmax/(1+ (I/IC50)^n)
In the above, n measures cooperativity, with n > 1 indicating synergistic binding of more than a single molecule of the compound.
To identify apPOL inhibitors we utilised our previously developed high-throughput DNA polymerase assay. The HT assay is based on a molecular beacon DNA template that forms a stem-loop with a Cy3 dye and the Black Hole Quencher on the 3′ and 5′ ends of the DNA, respectively. DNA polymerase activity extends an annealed primer through the stem region, displacing the fluorophore from the quencher, thereby increasing its fluorescence (Figure 1(A)). The assay accurately recapitulates the kinetic behaviour of apPOL, as measured through more conventional low-throughput gel-based assays. The Z′ factor for the assay described here was 0.9 across all plates (data not shown).
Figure 1. High-throughput screening. (A) The fluorescent-based DNA polymerase assay used to screen the compound libraries. The DNA template strand is a hairpin loop with a primer annealed to the loop. The 3’ end of the primer is 11 bases away from the 6 bp duplex. Strand displacement activity of the DNA polymerase separates the Cy3 dye from the Black hole quencher leading to an increase in fluorescent signal. (B) The high-throughput assay workflow. The DNA polymerase is incubated with […] compound for 10 min prior to addition of the hairpin substrate. The reaction is quenched at 3 different time points and the fluorescent signal is measured and % inhibition is determined using the provided equation.

P. falciparum apicoplast DNA polymerase (Pf-apPOL), sequence (Q8ILY1 entry or part of it): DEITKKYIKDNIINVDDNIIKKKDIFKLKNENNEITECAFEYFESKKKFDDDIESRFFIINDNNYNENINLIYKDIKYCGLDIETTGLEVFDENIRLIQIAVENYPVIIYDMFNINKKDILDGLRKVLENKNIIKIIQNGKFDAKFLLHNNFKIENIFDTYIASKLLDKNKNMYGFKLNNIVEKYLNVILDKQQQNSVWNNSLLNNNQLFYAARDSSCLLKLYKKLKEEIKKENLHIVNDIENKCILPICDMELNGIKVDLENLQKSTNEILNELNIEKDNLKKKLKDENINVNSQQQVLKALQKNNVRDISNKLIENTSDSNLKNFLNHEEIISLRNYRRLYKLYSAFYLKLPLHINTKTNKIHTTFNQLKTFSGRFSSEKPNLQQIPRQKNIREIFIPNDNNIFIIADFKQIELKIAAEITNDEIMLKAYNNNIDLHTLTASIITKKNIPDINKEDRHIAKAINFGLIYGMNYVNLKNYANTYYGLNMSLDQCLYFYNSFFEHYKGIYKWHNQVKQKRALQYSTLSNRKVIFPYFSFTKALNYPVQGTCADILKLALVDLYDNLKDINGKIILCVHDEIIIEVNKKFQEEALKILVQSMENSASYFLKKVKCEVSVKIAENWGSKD

Q: How did the “% inhibition Apo pol 10'” value (DRC-1, concentration 2.5) turn out when `O=C(CSc1nnc(-c2ccncc2)[nH]1)c1ccc(O)c(O)c1` [Molecule 89, O=C(c1ccc(c(c1)O)O)CSc1nnc([nH]1)c1ccncc1] was run?
A: 60.0938%

Q: And the “% inhibition Apo pol 10'” value (DRC-1, concentration 5)?
A: 82.0224%

Q: And the “% inhibition Apo pol 10'” value (DRC-1, concentration 10)?
A: 88.031%

Q: What about the “% inhibition Apo pol 10'” value (DRC-1, concentration 20) of the same molecule?
A: 91.1846%

Q: What about the “% inhibition Apo pol 10'” value (DRC-1, concentration 40) of the same molecule?
A: 93.0486%

Q: And the “% inhibition Apo pol 10'” value (DRC-1, concentration 80)?
A: 94.9385%

Q: And the “% inhibition Apol 90'” value (DRC-1, concentration 2.5)?
A: 43.8309%

Q: And the “% inhibition Apol 90'” value (DRC-1, concentration 5)?
A: 70.0142%

Q: And the “% inhibition Apol 90'” value (DRC-1, concentration 10)?
A: 80.3522%

Q: What about the “% inhibition Apol 90'” value (DRC-1, concentration 20) of the same molecule?
A: 84.6554%

Q: What about the “% inhibition Apol 90'” value (DRC-1, concentration 40) of the same molecule?
A: 86.229%

Q: What about the “% inhibition Apol 90'” value (DRC-1, concentration 80) of the same molecule?
A: 90.5693%

Q: What about the “% inhibition apPOL 180'” value (DRC-1, concentration 2.5) of the same molecule?
A: 29.303%

Q: What about the “% inhibition apPOL 180'” value (DRC-1, concentration 5) of the same molecule?
A: 56.5831%

Q: And the “% inhibition apPOL 180'” value (DRC-1, concentration 10)?
A: 70.7438%

Q: And the “% inhibition apPOL 180'” value (DRC-1, concentration 20)?
A: 76.8269%

Q: And the “% inhibition apPOL 180'” value (DRC-1, concentration 40)?
A: 78.119%

Q: And the “% inhibition apPOL 180'” value (DRC-1, concentration 80)?
A: 84.9374%

Q: What about the “% inhibition Apo pol 5'” value (DRC-2, concentration 2.5) of the same molecule?
A: 47%

Q: And the “% inhibition Apo pol 5'” value (DRC-2, concentration 5)?
A: 49%

Q: And the “% inhibition Apo pol 5'” value (DRC-2, concentration 10)?
A: 52%

Q: And the “% inhibition Apo pol 5'” value (DRC-2, concentration 20)?
A: 53%

Q: And the “% inhibition Apo pol 5'” value (DRC-2, concentration 40)?
A: 57%

Q: What about the “% inhibition Apo pol 5'” value (DRC-2, concentration 80) of the same molecule?
A: 58%

Q: What about the “% inhibition Apol 40'” value (DRC-2, concentration 2.5) of the same molecule?
A: 53%

Q: And the “% inhibition Apol 40'” value (DRC-2, concentration 5)?
A: 62%

Q: And the “% inhibition Apol 40'” value (DRC-2, concentration 10)?
A: 68%

Q: And the “% inhibition Apol 40'” value (DRC-2, concentration 20)?
A: 71%

Q: And the “% inhibition Apol 40'” value (DRC-2, concentration 40)?
A: 76%

Q: What about the “% inhibition Apol 40'” value (DRC-2, concentration 80) of the same molecule?
A: 78%

Q: What about the “% inhibition ApPOL 90'” value (DRC-2, concentration 2.5) of the same molecule?
A: 50%

Q: What about the “% inhibition ApPOL 90'” value (DRC-2, concentration 5) of the same molecule?
A: 62%

Q: What about the “% inhibition ApPOL 90'” value (DRC-2, concentration 10) of the same molecule?
A: 69%

Q: What about the “% inhibition ApPOL 90'” value (DRC-2, concentration 20) of the same molecule?
A: 73%

Q: What about the “% inhibition ApPOL 90'” value (DRC-2, concentration 40) of the same molecule?
A: 78%

Q: What about the “% inhibition ApPOL 90'” value (DRC-2, concentration 80) of the same molecule?
A: 80%

Q: What about the “% inhibition apPOL 180'” value (DRC-2, concentration 2.5) of the same molecule?
A: 34%

Q: What about the “% inhibition apPOL 180'” value (DRC-2, concentration 5) of the same molecule?
A: 53%

Q: What about the “% inhibition apPOL 180'” value (DRC-2, concentration 10) of the same molecule?
A: 63%

Q: What about the “% inhibition apPOL 180'” value (DRC-2, concentration 20) of the same molecule?
A: 68%

Q: And the “% inhibition apPOL 180'” value (DRC-2, concentration 40)?
A: 76%

Q: What about the “% inhibition apPOL 180'” value (DRC-2, concentration 80) of the same molecule?
A: 80%

Q: And the “% inhibition Apol 40'” value (conc. 2.5, DRC-2)?
A: 53%

Q: And the “% inhibition Apol 40'” value (conc. 5, DRC-2)?
A: 62%

Q: And the “% inhibition ApPOL 90'” value (conc. 5, DRC-2)?
A: 62%

Q: What about the “% inhibition apPOL 180'” value (conc. 5, DRC-2) of the same molecule?
A: 53%

Q: What about the “% inhibition Apol 40'” value (conc. 10, DRC-2) of the same molecule?
A: 68%

Q: What about the “% inhibition Apo pol 5'” value (conc. 20, DRC-2) of the same molecule?
A: 53%

Q: What about the “% inhibition apPOL 180'” value (conc. 20, DRC-2) of the same molecule?
A: 68%

Q: And the “% inhibition Apol 40'” value (conc. 40, DRC-2)?
A: 76%

Q: What about the “% inhibition ApPOL 90'” value (conc. 40, DRC-2) of the same molecule?
A: 78%

Q: What about the “% inhibition apPOL 180'” value (conc. 40, DRC-2) of the same molecule?
A: 76%

Q: And the “% inhibition Apol 40'” value (conc. 80, DRC-2)?
A: 78%

Q: And the “% inhibition ApPOL 90'” value (conc. 80, DRC-2)?
A: 80%

Q: What about the “% inhibition apPOL 180'” value (conc. 80, DRC-2) of the same molecule?
A: 80%

Q: What about the “DNA Pol” value (primary screen value by plate and well) of the same molecule?
A: 90

Q: And the “DNA Pol” value (primary screen value of the 186 hits, unit not given)?
A: 90

Q: How did the “DNA Pol” value ('DNA Pol' of the 186 hits list (screen value)) turn out when `Cc1ccc(NC(=O)Cn2ccc3c(=O)[nH]ccc32)c(C)c1` [KU0205125] was run?
A: 21

Q: And the “% inhibition Apo pol 10'” value (DRC-1, conc 2.5)?
A: 10.1191%

Q: And the “% inhibition Apo pol 10'” value (DRC-1, conc 5)?
A: 18.1282%

Q: And the “% inhibition Apo pol 10'” value (DRC-1, conc 10)?
A: 33.277%

Q: And the “% inhibition Apo pol 10'” value (DRC-1, conc 20)?
A: 57.4285%

Q: And the “% inhibition Apo pol 10'” value (DRC-1, conc 40)?
A: 86.5673%

Q: What about the “% inhibition Apo pol 10'” value (DRC-1, conc 80) of the same molecule?
A: 93.6236%

Q: And the “% inhibition Apol 90'” value (DRC-1, conc 2.5)?
A: 1.128%

Q: And the “% inhibition Apol 90'” value (DRC-1, conc 5)?
A: 2.856%

Q: What about the “% inhibition Apol 90'” value (DRC-1, conc 10) of the same molecule?
A: 16.2688%

Q: And the “% inhibition Apol 90'” value (DRC-1, conc 20)?
A: 36.6738%

Q: And the “% inhibition Apol 90'” value (DRC-1, conc 40)?
A: 74.6586%

Q: And the “% inhibition Apol 90'” value (DRC-1, conc 80)?
A: 93.7132%

Q: And the “% inhibition apPOL 180'” value (DRC-1, conc 2.5)?
A: -4.92%

Q: And the “% inhibition apPOL 180'” value (DRC-1, conc 5)?
A: -5.3418%

Q: And the “% inhibition apPOL 180'” value (DRC-1, conc 10)?
A: 4.52%

Q: What about the “% inhibition apPOL 180'” value (DRC-1, conc 20) of the same molecule?
A: 18.6019%

Q: And the “% inhibition apPOL 180'” value (DRC-1, conc 40)?
A: 59.9504%

Q: And the “% inhibition apPOL 180'” value (DRC-1, conc 80)?
A: 92.9849%

Q: What about the “% inhibition Apo pol 5'” value (DRC-2, conc 2.5) of the same molecule?
A: -2.19%

Q: What about the “% inhibition Apo pol 5'” value (DRC-2, conc 5) of the same molecule?
A: 1.9%

Q: What about the “% inhibition Apo pol 5'” value (DRC-2, conc 10) of the same molecule?
A: 23%

Q: What about the “% inhibition Apo pol 5'” value (DRC-2, conc 20) of the same molecule?
A: 44%

Q: What about the “% inhibition Apo pol 5'” value (DRC-2, conc 40) of the same molecule?
A: 52%

Q: And the “% inhibition Apo pol 5'” value (DRC-2, conc 80)?
A: 50%

Q: What about the “% inhibition Apo pol 5'” value (DRC-2, concentration 20) of the same molecule?
A: 44%

Q: What about the “% inhibition Apol 40'” value (DRC-2, conc 2.5) of the same molecule?
A: -3.78%

Q: What about the “% inhibition Apol 40'” value (DRC-2, conc 5) of the same molecule?
A: -0.571%

Q: And the “% inhibition Apol 40'” value (DRC-2, conc 10)?
A: 20%

Q: What about the “% inhibition Apol 40'” value (DRC-2, conc 20) of the same molecule?
A: 48%

Q: And the “% inhibition Apol 40'” value (DRC-2, conc 40)?
A: 70%

Q: And the “% inhibition Apol 40'” value (DRC-2, conc 80)?
A: 73%

Q: What about the “% inhibition ApPOL 90'” value (DRC-2, conc 2.5) of the same molecule?
A: -5%

Q: What about the “% inhibition ApPOL 90'” value (DRC-2, conc 5) of the same molecule?
A: -4%

Q: What about the “% inhibition ApPOL 90'” value (DRC-2, conc 10) of the same molecule?
A: 15%

Q: What about the “% inhibition ApPOL 90'” value (DRC-2, conc 20) of the same molecule?
A: 44%

Q: And the “% inhibition ApPOL 90'” value (DRC-2, conc 40)?
A: 71%

Q: And the “% inhibition ApPOL 90'” value (DRC-2, conc 80)?
A: 78%

Q: What about the “% inhibition ApPOL 90'” value (DRC-2, concentration 20) of the same molecule?
A: 44%

Q: And the “% inhibition apPOL 180'” value (DRC-2, conc 2.5)?
A: -10%

Q: And the “% inhibition apPOL 180'” value (DRC-2, conc 5)?
A: -11%

Q: What about the “% inhibition apPOL 180'” value (DRC-2, conc 10) of the same molecule?
A: 3%

Q: And the “% inhibition apPOL 180'” value (DRC-2, conc 20)?
A: 30%

Q: And the “% inhibition apPOL 180'” value (DRC-2, conc 40)?
A: 69%

Q: And the “% inhibition apPOL 180'” value (DRC-2, conc 80)?
A: 82%

Q: And the “DNA Pol” value (primary screen value, "DNA Pol")?
A: 21
